Results on 10 compounds are retold here after patent US10933056B2, “3-(1H-pyrazol-4-yl)pyridine allosteric modulators of the M4 muscarinic acetylcholine receptor” (Merck Sharp & Dohme Corp., priority 2015, dated 2021).

The target of this assay is T1, human M4 muscarinic acetylcholine receptor (Homo sapiens, UniProt P08173).
T1 construct: expressed in transfected cells; host or cells: CHO-K1
T1 sequence (P08173 1-479): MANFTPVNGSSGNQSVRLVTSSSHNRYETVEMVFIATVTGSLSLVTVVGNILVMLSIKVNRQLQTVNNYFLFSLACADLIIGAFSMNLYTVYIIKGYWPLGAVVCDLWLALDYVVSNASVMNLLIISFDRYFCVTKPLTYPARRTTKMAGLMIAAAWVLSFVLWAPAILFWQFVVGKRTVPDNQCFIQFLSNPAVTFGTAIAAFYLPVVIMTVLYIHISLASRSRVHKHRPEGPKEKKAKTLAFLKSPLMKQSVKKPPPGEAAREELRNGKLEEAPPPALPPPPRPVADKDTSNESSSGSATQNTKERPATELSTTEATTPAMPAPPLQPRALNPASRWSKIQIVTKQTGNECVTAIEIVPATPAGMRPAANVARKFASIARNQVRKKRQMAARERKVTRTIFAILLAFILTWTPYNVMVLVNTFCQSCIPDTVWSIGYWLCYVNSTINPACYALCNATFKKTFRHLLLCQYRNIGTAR
The experiment in a line: human FLIPR-based M4 PAM assay (calcium mobilization in CHO-K1 cells with human M4 receptor and Gαqi5). The class given is cell-based. Particulars: inflection point of dose response curve, acetylcholine at 20% of maximum response, FLIPR Tetra, read-out: M4 PAM IP. Put shortly: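 CHO-K1 cells stably expressing human M4 and chimeric Gαqi5 were dye-loaded ~1 h at 37° C. Test compound was added with fluorescence recorded 4 min, then acetylcholine at EC20 (sometimes a further EC70 addition) with reading 3.5 min. Value is the inflection point of a 4-parameter logistic fit.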

For the compound `CC1(Cn2cc(-c3ccc(C#N)nc3-c3ccc4c(c3)C(=O)NC4)cn2)CCCC1` [Example 34, 5-(1-((1-methylcyclopentyl)methyl)-1H-pyrazol-4-yl)-6-(3-oxoisoindolin-5-yl)picolinonitrile], the EC50 stood at 15 nM.
Then `CN1Cc2ccc(-c3nc(C#N)ccc3-c3cnn(CC4CCCC4)c3)cc2C1=O` [Example 11, 5-(1-(cyclopentylmethyl)-1H-pyrazol-4-yl)-6-(2-methyl-3-oxoisoindolin-5-yl)picolinonitrile], with 11 nM; and `CC1(Cn2cc(-c3cc4c(nc3-c3cnc5c(c3)C(=O)N(CC3CC3)C5)CCC4)cn2)CCCC1` [Example 10, 6-(cyclopropylmethyl)-3-(3-(1-((1-methylcyclopentyl)methyl)-1H-pyrazol-4-yl)-6,7-dihydro-5H-cyclopenta[b]pyridin-2-yl)-6,7-dihydro-5H-pyrrolo[3,4-b]pyridin-5-one], with 54 nM; and `C#CCN1Cc2ncc(-c3nc(C#N)ccc3-c3cnn(CC4(C)CCCC4)c3)cc2C1=O` [Example 120, 5-(1-((1-methylcyclopentyl)methyl)-1H-pyrazol-4-yl)-6-(5-oxo-6-(prop-2-yn-1-yl)-6,7-dihydro-5H-pyrrolo[3,4-b]pyridin-3-yl)picolinonitrile], with 26 nM.
In the case of `CN1Cc2ccc(-c3nc(Cl)cc(N)c3-c3cnn(CC4(C)CCCC4)c3)cc2C1=O` [Example 63, 6-(4-amino-6-chloro-3-(1-((1-methylcyclopentyl)methyl)-1H-pyrazol-4-yl)pyridin-2-yl)-2-methylisoindolin-1-one], the EC50 is 489 nM.
Regarding `CC#CCN1Cc2ncc(-c3nc4c(cc3-c3cnn(CC5(C)CCCC5)c3)CCC4)cc2C1=O` [Example 119, 6-(but-2-yn-1-yl)-3-(3-(1-((1-methylcyclopentyl)methyl)-1H-pyrazol-4-yl)-6,7-dihydro-5H-cyclopenta[b]pyridin-2-yl)-6,7-dihydro-5H-pyrrolo[3,4-b]pyridin-5-one], the EC50 was 71 nM.
Then `Cc1cc(-c2cnn(CC3(C)CCCC3)c2)c(-c2ccc3c(c2)C(=O)N(C)C3)nc1CO` [Example 77, 6-(6-(hydroxymethyl)-5-methyl-3-(1-((1-methylcyclopentyl)methyl)-1H-pyrazol-4-yl)pyridin-2-yl)-2-methylisoindolin-1-one], with 85 nM; and `CNC(=O)c1ccc(-c2cnn(CC3CCCC3)c2)c(-c2ccc3c(c2)C(=O)N(C)C3)n1` [Example 14, 5-(1-(cyclopentylmethyl)-1H-pyrazol-4-yl)-N-methyl-6-(2-methyl-3-oxoisoindolin-5-yl)picolinamide], with 687 nM; and `O=C1c2cc(-c3ncccc3-c3cnn(CC4CCCC4)c3)ccc2CN1c1ccccc1` [Example 83, 6-(3-(1-(cyclopentylmethyl)-1H-pyrazol-4-yl)pyridin-2-yl)-2-phenylisoindolin-1-one], with 100 nM.
As for `Cc1cc(-c2cnn(CC3(C)CCCC3)c2F)c(-c2ccc3c(c2)C(=O)N(C)C3)nc1Cl` [Example 75, 6-(6-chloro-3-(5-fluoro-1-((1-methylcyclopentyl)methyl)-1H-pyrazol-4-yl)-5-methylpyridin-2-yl)-2-methylisoindolin-1-one], the EC50 was 80 nM.
